In the C3SDB collision cross section collection:
Where “and” joins values, the source holds several entries; their conditions need not be identical. Equal values may be shown once.

Tests used:
[1] = instrument: TW, calibrated with phosphatidylcholines (ESI+) and phosphatidylethanolamines (ESI-)
[2] = [M-H]-; instrument: DT; stepped-field
[3] = instrument: TW, calibrated with phosphatidylcholines (ESI+) and phosphatidylethanolamines (ESI-); remark: listed apart in the source
[4] = instrument: DT, single field, calibrated with Agilent tune mix (Agilent)
[5] = instrument: DT, stepped-field

CCCCCCCCCCCCCCCCCCCCC(=O)OC(COC(=O)CCCCCCCCCCCCCC)COP(=O)([O-])OCC(O)COC(=O)C(N)CCCC[NH3+] (stereo not given) [LysPG(36:0)]
collision cross section (N2) ([1]; [M+H]+): 308.7 Å²

CCCCCC/C=C\CCCCCCCCCC(=O)OCC(COP(=O)([O-])OCC(O)COC(=O)C(N)CCCC[NH3+])OC(=O)CCCCCCCCC/C=C\CCCCCC (stereo not given) [LysPG(36:2)]
collision cross section (N2) ([1]; [M+H]+): 302.8 Å²

CC/C=C\C/C=C\C/C=C\CCCCCCCC(=O)OC[C@H](CO[C@@H]1O[C@H](CO)[C@H](O)C(O)C1O)OC(=O)CCCCC/C=C\C/C=C\C/C=C\CC (stereo not given in full) [MGDG(16:3/18:3)]
collision cross section (N2) ([1]; [M+CH3COO]-): 280.3 Å² | collision cross section (N2) ([1]; [M+Cl]-): 273.7 Å² | collision cross section (N2) ([1]; [M+K]+): 273.6 Å² | collision cross section (N2) ([1]; [M+Na]+): 273.1 Å² | collision cross section (N2) ([1]; [M-H]-): 269.9 Å²

CCCCCCCCCC/C=C\CCCCCCCCCC(=O)O[C@H](COC(=O)CCCCCCCCCCC)COP(=O)(O)O [PA(16:0/18:1)]
collision cross section (N2) [2]: 259.2 Å² | collision cross section (N2) ([1]; [M-H]-): 256.3 Å²

CCCCCCCCCCCCCCCCCC(=O)O[C@H](COC(=O)CCCCCCCCCCCC)COP(=O)(O)O [PA(31:0)]
collision cross section (N2) ([1]; [M-H]-): 248.2 Å²

CCCC/C=C\CCCCCCCC(=O)O[C@H](COC(=O)CCCCCCCCCCCCC)COP(=O)(O)OC[C@@H](O)CO [PG(28:1)]
collision cross section (N2) ([1]; [M-H]-): 251.2 Å²

CCCCCCCC/C=C\CCCCCCCCCC(=O)O[C@H](COC(=O)CCCCCCCCCCC)COP(=O)(O)OC[C@@H](O)CO [PG(32:1)]
collision cross section (N2) [2]: 270.4 Å² | collision cross section (N2) ([3]; [M+Na]+): 274.1 Å² | collision cross section (N2) ([3]; [M-H]-): 262.5 Å² | collision cross section (N2) ([4]; [M-H]-): 263.3 Å² | collision cross section (N2) ([1]; [M-H]-): 263.3 Å²

CCCCCCCCCCCCCCCCCCCC(=O)OC[C@H](COP(=O)(O)OC[C@@H](O)CO)OC(=O)CCCCCCCCCCCCC [PG(34:0)]
collision cross section (N2) [2]: 277.6 Å² | collision cross section (N2) ([3]; [M+Na]+): 282.2 Å² | collision cross section (N2) ([3]; [M-H]-): 269 Å² | collision cross section (N2) ([1]; [M-H]-): 270.8 Å²

CCCCCCCCCC/C=C\CCCCCCCCCC(=O)O[C@H](COC(=O)CCCCCCCCCCC)COP(=O)(O)OC[C@@H](O)CO [PG(34:1)]
collision cross section (N2) ([3]; [M+Na]+): 281.1 Å² | collision cross section (N2) ([3]; [M-H]-): 268.9 Å² | collision cross section (N2) ([4]; [M+H]+): 286.8 Å² | collision cross section (N2) ([4]; [M+NH4]+): 287.3 Å² | collision cross section (N2) ([4]; [M-H]-): 270.2 Å² | collision cross section (N2) ([1]; [M-H]-): 269.9 Å²

CCCCCCCCCCCCCCCCCCCCC(=O)OC[C@H](COP(=O)(O)OC[C@@H](O)CO)OC(=O)CCCCCCCCCCCCCC [PG(36:0)]
collision cross section (N2) ([1]; [M-H]-): 277.9 Å²

CCCC/C=C\CCCCCCCC(=O)OC[C@H](COP(=O)(O)OC[C@@H](O)CO)OC(=O)CCCCCCCCC/C=C\CCCCCCCCCC [PG(36:2)]
collision cross section (N2) [2]: 282.3 Å² and 281.9 Å² | collision cross section (N2) ([3]; [M+Na]+): 284.7 Å² | collision cross section (N2) ([3]; [M-H]-): 274.3 Å² | collision cross section (N2) ([4]; [M+H]+): 288.9 Å² | collision cross section (N2) ([4]; [M+Na]+): 286 Å² | collision cross section (N2) ([1]; [M-H]-): 274.9 Å²

CCCC/C=C\CCCCCCCC(=O)O[C@H](CO/C=C\CCCCCCCCCCCCC)COP(=O)(O)OC[C@@H](O)CO [PG(p29:1)]
collision cross section (N2) ([1]; [M-H]-): 252.2 Å²

CCCC/C=C\CCCCCCCC(=O)O[C@H](CO/C=C\CCCCCCCCCCCCCC)COP(=O)(O)OC[C@@H](O)CO [PG(p30:1)]
collision cross section (N2) ([1]; [M-H]-): 255.3 Å²

CCCC/C=C\CCCCCCCC(=O)O[C@H](CO/C=C\CCCCCCCCCCCCCCCC)COP(=O)(O)OC[C@@H](O)CO [PG(p32:1)]
collision cross section (N2) ([1]; [M-H]-): 262.1 Å²

CCCC/C=C\C/C=C\CCCCCCCC(=O)O[C@H](CO/C=C\CCCCCCCCCCCCCC)COP(=O)(O)OC[C@@H](O)CO [PG(p33:2)]
collision cross section (N2) ([1]; [M-H]-): 263.4 Å²

CCCCCC/C=C\CCCCCCCC(=O)O [Palmitoleic acid]
collision cross section (N2) ([5]; [M-H]-): 167.95 Å²

Cc1ncc(COP(=O)(O)O)c(C=O)c1O [Pyridoxal Phosphate]
collision cross section (N2) ([5]; [M+H]+): 151.94 Å² | collision cross section (N2) ([5]; [M+Na]+): 161.4 Å² | collision cross section (N2) ([5]; [M-H]-): 150.8 Å²

CSCC[C@H](NC(=O)[C@H](CC(C)C)NC(=O)CNC(=O)[C@H](Cc1ccccc1)NC(=O)[C@H](Cc1ccccc1)NC(=O)[C@H](CCC(N)=O)NC(=O)[C@H](CCC(N)=O)NC(=O)[C@@H]1CCCN1C(=O)[C@H](CCCCN)NC(=O)[C@@H]1CCCN1C(=O)[C@@H](N)CCCN=C(N)N)C(N)=O [Substance P]
collision cross section (N2) ([5]; [M+2H]2+): 399.88 Å² | collision cross section (N2) ([5]; [M+3H]3+): 495.74 Å² | collision cross section (N2) ([5]; [M+H]+): 362.51 Å²

O=c1[nH]c(=O)c2[nH]c(=O)[nH]c2[nH]1 [Uric acid]
collision cross section (N2) ([5]; [M-H]-): 126.93 Å²
